These results are taken from patent US9179674B2, “Macrocyclic picolinamide compounds with fungicidal activity” (DOW AGROSCIENCES LLC, priority 2013, dated 2015).

Like-named read-outs stand apart in the source and are kept apart here.

Assay [1] deals with Mycosphaerella graminicola; Anamorph: Septoria tritici. In words: Leaf Blotch of Wheat fungicidal activity (SEPTTR). The note with it: for pest or weed control at 100 ppm / pest or weed control at 121.5 g/ha: Zymoseptoria tritici; for pest or weed control at 121.5 g/ha: rate 121.5 g/H. The class given is in vivo. Here is the method:
Evaluation of Fungicidal Activity: Leaf Blotch of Wheat (Mycosphaerella graminicola; Anamorph: Septoria tritici; Bayer code […]) Technical grades of materials were dissolved in acetone, which were then mixed with nine volumes of water containing 110 ppm Triton X-100. The fungicide solutions were applied onto wheat seedlings using an automated booth sprayer to run-off. All sprayed plants were allowed to air dry prior to further handling. All fungicides were evaluated using the aforementioned method for their activity vs. all target diseases. Wheat leaf blotch and brown rust activity were also evaluated using track spray applications, in which case the fungicides were formulated as EC formulations, containing 0.1% Trycol 5941 in the spray solutions. Wheat plants (variety Yuma) were grown from seed in a greenhouse in 50% mineral soil/50% soil-less Metro mix until the first leaf was fully emerged, with 7-10 seedlings per pot. These plants were inoculated with an aqueous spore suspension of Septoria tritici either prior to or after fungicide treatments. After inoculation the plants were kept in 100% relative humidity (one day in a dark dew chamber followed by two to three days in a lighted dew chamber at 20° C.) to permit spores to germinate and infect the leaf. The plants were then transferred to a greenhouse set at 20° C. for disease to develop. When disease symptoms were fully expressed on the 1st leaves of untreated plants, infection levels were assessed on a scale of 0 to 100 percent disease severity. Percent disease control was calculated using the ratio of disease severity on treated plants relative to untreated plants.

The subject of another assay is Puccinia triticina. Nature of the assay: Wheat Brown Rust fungicidal activity (PUCCRT). In kind it is in vivo. Conditions: for pest or weed control at 100 ppm / pest or weed control at 121.5 g/ha: Puccinia triticina; for pest or weed control at 121.5 g/ha: rate 121.5 g/H. Here is the method:
Technical grades of materials were dissolved in acetone, which were then mixed with nine volumes of water containing 110 ppm Triton X-100. The fungicide solutions were applied onto wheat seedlings using an automated booth sprayer to run-off. All sprayed plants were allowed to air dry prior to further handling. All fungicides were evaluated using the aforementioned method for their activity vs. all target diseases. Wheat leaf blotch and brown rust activity were also evaluated using track spray applications, in which case the fungicides were formulated as EC formulations, containing 0.1% Trycol 5941 in the spray solutions. Wheat plants (variety Yuma) were grown from seed in a greenhouse in 50% mineral soil/50% soil-less Metro mix until the first leaf was fully emerged, with 7-10 seedlings per pot. These plants were inoculated with an aqueous spore suspension of Septoria tritici either prior to or after fungicide treatments. After inoculation the plants were kept in 100% relative humidity (one day in a dark dew chamber followed by two to three days in a lighted dew chamber at 20° C.) to permit spores to germinate and infect the leaf. The plants were then transferred to a greenhouse set at 20° C. for disease to develop. When disease symptoms were fully expressed on the 1st leaves of untreated plants, infection levels were assessed on a scale of 0 to 100 percent disease severity. Percent disease control was calculated using the ratio of disease severity on treated plants relative to untreated plants. Evaluation of Fungicidal Activity: Wheat Brown Rust (Puccinia triticina; Synonym: Puccinia recondite f sp. tritici; Bayer code PUCCRT) Wheat plants (variety Yuma) were grown from seed in a greenhouse in 50% mineral soil/50% soil-less Metro mix until the first leaf was fully emerged, with 7-10 seedlings per pot. These plants were inoculated with an aqueous spore suspension of Puccinia triticina either prior to or after fungicide treatments. After inoculation the plants were kept in a dark dew room at 22° C. with 100% relative humidity overnight to permit spores to germinate and infect the leaf. The plants were then transferred to a greenhouse set at 24° C. for disease to develop. Fungicide formulation, application and disease assessment followed the procedures as described in the Example A.

[2] abbreviates: 24 h, 1 Day Protectant, rate 100 ppm, read-out: Disease control SEPTTR 1DP.
[3] abbreviates: 24 h, 1 Day Protectant, read-out: Disease control SEPTTR 1DP.
Where [4] appears, read: 72 h, 3 Day Curative, rate 100 ppm, read-out: Disease control SEPTTR 3DC.
[5] abbreviates: 72 h, 3 Day Curative, read-out: Disease control SEPTTR 3DC.
Where [6] appears, read: 24 h, 1 Day Protectant, rate 100 ppm, read-out: Disease control PUCCRT 1DP.
Setting [7] is: 24 h, 1 Day Protectant, read-out: Disease control PUCCRT 1DP.
Setting [8] is: 72 h, 3 Day Curative, rate 100 ppm, read-out: Disease control PUCCRT 3DC.
Setting [9] is: 72 h, 3 Day Curative, read-out: Disease control PUCCRT 3DC.

In the case of `COc1ccnc(C(=O)N[C@H]2COC[C@H](Cc3ccc(C(F)(F)F)cc3)[C@@H](OC(=O)C3CC3)[C@H](C)OC2=O)c1OCOC(C)=O` [Compound F98], the pest or weed control at 100 ppm (in assay [1] (setting [2]); in assay [1] (setting [4]); in the assay with Puccinia triticina (setting [6]); with Puccinia triticina (setting [8])) was 80 to 100% each time. The pest or weed control at 121.5 g/ha in assay [1] (setting [3]) was 80 to 100%; in assay [1] (setting [5]), 0 to 80%; in the assay on Puccinia triticina (setting [7]) it was 80 to 100%; in the assay on Puccinia triticina (setting [9]), 0 to 80%.
For `COc1ccnc(C(=O)N[C@H]2COC[C@H](Cc3ccc(F)cc3)[C@@H](Oc3ccccc3)[C@H](C)OC2=O)c1OC(C)=O` [Compound F59], the pest or weed control at 100 ppm (in assay [1] (setting [2]); in assay [1] (setting [4]); in the assay on Puccinia triticina (setting [6]); in the assay on Puccinia triticina (setting [8])) was 80 to 100% in each case. Besides, the pest or weed control at 121.5 g/ha in assay [1] (setting [3]) is 80 to 100%; in assay [1] (setting [5]) it was 80 to 100%; with Puccinia triticina (setting [7]), 80 to 100%; in the assay on Puccinia triticina (setting [9]), 0 to 80%.
As to `COc1ccnc(C(=O)N[C@H]2COC[C@H](Cc3ccc(C(F)(F)F)cc3)[C@@H](OC3CCCC3)[C@H](C)OC2=O)c1O` [Compound F28], the pest or weed control at 100 ppm in assay [1] (setting [2]) lay in the range of 80 to 100%; in assay [1] (setting [4]), 0 to 80%; in the assay on Puccinia triticina (setting [6]), 80 to 100%; with Puccinia triticina (setting [8]), 0 to 80%.
As to `COc1ccnc(C(=O)N[C@H]2COC[C@H](Cc3ccc(C)cc3)[C@@H](OC(=O)C3CC3)[C@H](C)OC2=O)c1OC(C)=O` [Compound F61], the pest or weed control at 100 ppm (in assay [1] (setting [2]); in assay [1] (setting [4]); in the assay with Puccinia triticina (setting [6]); in the assay on Puccinia triticina (setting [8])) was 80 to 100% throughout. Besides, the pest or weed control at 121.5 g/ha fell in the range of 80 to 100% in assay [1] (setting [3]), 0 to 80% in assay [1] (setting [5]), 80 to 100% in the assay with Puccinia triticina (setting [7]) and 0 to 80% in the assay on Puccinia triticina (setting [9]).
Turning to `COc1ccnc(C(=O)N[C@H]2COC[C@H](CCc3ccccc3)[C@@H](Oc3ccc(C)cc3)[C@H](C)OC2=O)c1OC(C)=O` [Compound F58], the pest or weed control at 100 ppm (in assay [1] (setting [2]); in assay [1] (setting [4]); in the assay with Puccinia triticina (setting [6]); with Puccinia triticina (setting [8])) was 80 to 100% each time. In addition, the pest or weed control at 121.5 g/ha was 80 to 100% in assay [1] (setting [3]), 80 to 100% in assay [1] (setting [5]), 80 to 100% with Puccinia triticina (setting [7]) and 0 to 80% in the assay on Puccinia triticina (setting [9]).
As to `COc1ccnc(C(=O)N[C@H]2COC[C@H](Cc3ccc(C)cc3)[C@@H](OC3CCCC3)[C@H](C)OC2=O)c1O` [Compound F25], the pest or weed control at 100 ppm is 80 to 100% in assay [1] (setting [2]), 80 to 100% in assay [1] (setting [4]), 80 to 100% in the assay with Puccinia triticina (setting [6]) and 0 to 80% in the assay on Puccinia triticina (setting [8]).
As for `COc1ccnc(C(=O)N[C@H]2COC[C@H](Cc3cc(F)c(F)c(F)c3)[C@@H](OCC(C)C)[C@H](C)OC2=O)c1OC(C)=O` [Compound F72], the pest or weed control at 100 ppm (in assay [1] (setting [2]); in assay [1] (setting [4]); in the assay with Puccinia triticina (setting [6]); in the assay with Puccinia triticina (setting [8])) was 80 to 100% each time. Besides, the pest or weed control at 121.5 g/ha (in assay [1] (setting [3]); in assay [1] (setting [5]); in the assay on Puccinia triticina (setting [7]); with Puccinia triticina (setting [9])) was 80 to 100% throughout.
As for `COc1ccnc(C(=O)N[C@H]2COC[C@H](CCC(C)C)[C@@H](Oc3ccc(C)cc3)[C@H](C)OC2=O)c1OC(C)=O` [Compound F69], the pest or weed control at 100 ppm (in assay [1] (setting [2]); in assay [1] (setting [4]); in the assay with Puccinia triticina (setting [6]); with Puccinia triticina (setting [8])) was 80 to 100% each time. In addition, the pest or weed control at 121.5 g/ha in assay [1] (setting [3]) was in the range of 80 to 100%; in assay [1] (setting [5]), 80 to 100%; in the assay on Puccinia triticina (setting [7]), 80 to 100%; in the assay with Puccinia triticina (setting [9]), 0 to 80%.
Turning to `COc1ccnc(C(=O)N[C@H]2COC[C@H](Cc3ccc(C)cc3)[C@@H](OC3CCCC3)[C@H](C)OC2=O)c1OC(C)=O` [Compound F64], the pest or weed control at 100 ppm (in assay [1] (setting [2]); in assay [1] (setting [4]); in the assay on Puccinia triticina (setting [6]); in the assay with Puccinia triticina (setting [8])) was 80 to 100% in each case.
On to `CCCCCO[C@@H]1[C@@H](CCc2ccccc2)COC[C@H](NC(=O)c2nccc(OC)c2OC(C)=O)C(=O)O[C@H]1C` [Compound F55], for which the pest or weed control at 100 ppm (in assay [1] (setting [2]); in assay [1] (setting [4]); in the assay on Puccinia triticina (setting [6]); in the assay with Puccinia triticina (setting [8])) was 80 to 100% in each case.
Consider `COc1ccnc(C(=O)N[C@H]2COC[C@H](CC3CCCC3)[C@@H](OCC(C)C)[C@H](C)OC2=O)c1OCOC(C)=O` [Compound F115], for which the pest or weed control at 100 ppm (in assay [1] (setting [2]); in assay [1] (setting [4]); in the assay with Puccinia triticina (setting [6]); in the assay on Puccinia triticina (setting [8])) was 80 to 100% each time. Further, the pest or weed control at 121.5 g/ha (in assay [1] (setting [3]); in assay [1] (setting [5]); with Puccinia triticina (setting [7]); in the assay with Puccinia triticina (setting [9])) was 80 to 100% in each case.
Regarding `CCCO[C@@H]1[C@@H](CCC(C)C)COC[C@H](NC(=O)c2nccc(OC)c2OC(C)=O)C(=O)O[C@H]1C` [Compound F70], the pest or weed control at 100 ppm (in assay [1] (setting [2]); in assay [1] (setting [4]); in the assay on Puccinia triticina (setting [6]); with Puccinia triticina (setting [8])) was 80 to 100% throughout.
Turning to `COc1ccnc(C(=O)N[C@H]2COC[C@H](Cc3ccc(F)cc3)[C@@H](OC3CCCC3)[C@H](C)OC2=O)c1O` [Compound F18], the pest or weed control at 100 ppm in assay [1] (setting [2]) was in the range of 80 to 100%; in assay [1] (setting [4]) it was 0 to 80%; in the assay with Puccinia triticina (setting [6]), 80 to 100%; with Puccinia triticina (setting [8]) it was 80 to 100%.
Consider `COc1ccnc(C(=O)N[C@H]2COC[C@H](CCc3ccccc3)[C@@H](Oc3ccc(C)cc3)[C@H](C)OC2=O)c1O` [Compound F16], for which the pest or weed control at 100 ppm in assay [1] (setting [2]) lay within 80 to 100%; in assay [1] (setting [4]) it was 0 to 80%; in the assay on Puccinia triticina (setting [6]), 80 to 100%; in the assay on Puccinia triticina (setting [8]), 0 to 80%.
As to `CCCCCO[C@@H]1[C@@H](Cc2ccc(C(F)(F)F)cc2)COC[C@H](NC(=O)c2nccc(OC)c2OCOC(C)=O)C(=O)O[C@H]1C` [Compound F103], the pest or weed control at 100 ppm in assay [1] (setting [2]) was 80 to 100%; in assay [1] (setting [4]), 0 to 80%; with Puccinia triticina (setting [6]) it was 80 to 100%; in the assay with Puccinia triticina (setting [8]), 80 to 100%.
For `COc1ccnc(C(=O)N[C@H]2COC[C@H](CCc3ccccc3)[C@@H](OC(=O)C3CC3)[C@H](C)OC2=O)c1O` [Compound F15], the pest or weed control at 100 ppm in assay [1] (setting [2]) lay in the range of 80 to 100%; in assay [1] (setting [4]) it was 80 to 100%; in the assay on Puccinia triticina (setting [6]), 80 to 100%; in the assay on Puccinia triticina (setting [8]), 0 to 80%.
In the case of `COc1ccnc(C(=O)N[C@H]2COC[C@H](Cc3ccc(C(F)(F)F)cc3)[C@@H](OCC(C)C)[C@H](C)OC2=O)c1O` [Compound F30], in assay [1] (1 Day Protectant, rate 100 ppm), the “Disease control SEPTTR 1DP” value is “A (80-100)”. The “Disease control SEPTTR 3DC” value in assay [1] (3 Day Curative, rate 100 ppm) was “B (More than 0-Less than 80)”. The “Disease control PUCCRT 1DP” value in the assay on Puccinia triticina (1 Day Protectant, rate 100 ppm) is reported as “A (80-100)”.
